Results from patent US20260078111A1, “CARBONIC ANHYDRASE ENZYME INHIBITORS AND METHODS OF USE THEREOF” (RUTGERS, THE STATE UNIVERSITY OF NEW JERSEY, priority 2022, published 2026).
Where two headings read alike, the source gives them in different places.

Experiments:
[1] = system: mast cell development from murine bone marrow cells; assay: In vitro mast cell development culture assay (IL-3, flow cytometry); type: cell-based, mice; conditions: for Percent Inhibition at 10 μm: in vitro mast cell cultures; for inhibition at 15 µM: Mus musculus, Mast cell, read-out: POI (percent of inhibition based on MC numbers)
Description: To further test the ability of 4-(3-hydroxy-1-(4-methoxybenzyl)-2-oxoindolin-3-yl)benzenesulfonamide to inhibit mast cell development, an established mast cell culture assay was employed (Henry, E. K., et al., J Exp Med, 2016. 213(9): p. 1663-73). As a positive control for mast cell development, bone marrow cells were isolated from the femur of mice and cultured in the presence of 10 ng/mL of IL-3 and vehicle (1:10, DMSO/RPMI complete media) for seven days and mast cells were identified by flow cytometric analysis as (c-Kit+ FceRIa+ CD49b− cells).
In vitro Mast Cell development: Briefly, 1×10^6 bone marrow-resident progenitor cells were isolated from the femur of mice and cultured in complete media supplemented with 10 ng/mL of rIL-3 for a period of […]. Mast cells were identified by their expression of the surface molecules FcεRIα and c-Kit via flow cytometric analysis. In addition to IL-3, cultures were treated with vehicle or increasing concentrations of Car enzyme inhibitors at the indicated concentrations.

[2] = molecular target: recombinant human Car1 (Homo sapiens, UniProt P00915); assay: Stopped-flow assay of Car1 enzyme inhibition (IC50); type: biochemical
Sequence of recombinant human Car1 (P00915 whole entry): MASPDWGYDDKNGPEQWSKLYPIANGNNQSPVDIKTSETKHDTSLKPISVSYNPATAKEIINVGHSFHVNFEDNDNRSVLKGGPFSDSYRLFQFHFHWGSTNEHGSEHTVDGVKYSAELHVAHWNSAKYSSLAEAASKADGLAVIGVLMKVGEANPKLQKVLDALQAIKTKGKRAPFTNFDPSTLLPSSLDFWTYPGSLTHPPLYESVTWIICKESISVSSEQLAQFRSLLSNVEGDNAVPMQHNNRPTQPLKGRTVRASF
Description: Stopped-flow: IC50 values were established using an SX20 stopped-flow spectrometer from […]. In one syringe of the SX20, recombinant human Car1 was kept at a concentration of 9 μM in a sodium phosphate buffer and inhibitors were added to this solution at 0 nM, 10 nM, 20 nM, 80 nM and 100 nM. In a second syringe, a saturated CO2 solution was mixed with 0.2 mM phenol red. This series of dilutions allow for the evaluation of how quickly Car1 can metabolize the CO2 in the absence of an inhibitor and for the determination of whether that process is inhibited as increasing concentrations of compounds are added.

Structure (SMILES): CN1C(=O)C(O)(c2ccc(S(N)(=O)=O)cc2)c2ccccc21 (stereo not shown)
- Percent Inhibition at 10 μm [1]: 84%

Structure (SMILES): NS(=O)(=O)c1ccc(C2(O)C(=O)N(Cc3ccc(F)cc3)c3ccccc32)cc1 (stereo not shown)
- Percent Inhibition at 10 μm [1]: 98%

Structure (SMILES): NS(=O)(=O)c1ccc(C2(O)C(=O)Nc3ccccc32)cc1 (stereo not shown)
- Percent Inhibition at 10 μm [1]: 94%

Structure (SMILES): CCN1C(=O)C(O)(c2ccc(S(N)(=O)=O)cc2)c2ccccc21 (stereo not shown)
- Percent Inhibition at 10 μm [1]: 99%

Structure (SMILES): CCN1C(=O)C(F)(c2ccc(S(N)(=O)=O)cc2)c2ccccc21 (stereo not shown)
- Percent Inhibition at 10 μm [1]: 99%

Structure (SMILES): NS(=O)(=O)c1ccc(C2(F)C(=O)N(Cc3ccc(F)cc3)c3ccccc32)cc1 (stereo not shown)
- Percent Inhibition at 10 μm [1]: 98%

Structure (SMILES): CN1C(=O)C(F)(c2ccc(S(N)(=O)=O)cc2)c2ccccc21 (stereo not shown)
- Percent Inhibition at 10 μm [1]: 100%

Structure (SMILES): COc1ccc(CN2C(=O)C(F)(c3ccc(S(N)(=O)=O)cc3)c3ccccc32)cc1 (stereo not shown)
- Percent Inhibition at 10 μm [1]: 99%

Structure (SMILES): NS(=O)(=O)c1ccc(C2(O)C(=O)N(Cc3ccc(OC(F)F)cc3)c3ccccc32)cc1 (stereo not shown) [NEM-4A, 4-[1-[[4-(difluoromethoxy)phenyl]methyl]-3-hydroxy-2-oxo-indolin-3-yl]benzenesulfonamide]
- inhibition at 15 µM [1]: 82%

Structure (SMILES): NS(=O)(=O)c1ccc(C2(O)C(=O)N(Cc3ccc(F)c(F)c3)c3ccccc32)cc1 (stereo not shown) [NEM-9A, 4-[1-[(3,4-difluorophenyl)methyl]-3-hydroxy-2-oxo-indolin-3-yl]benzenesulfonamide]
- inhibition at 15 µM ([1]; Table 3, at 15 uM): 18%
- IC50 [2]: 51.3 nM

Structure (SMILES): NS(=O)(=O)c1ccc(C2(O)C(=O)N(Cc3cc[n+]([O-])cc3)c3ccccc32)cc1 (stereo not shown) [NEM-10A, 4-[3-hydroxy-1-[(1-oxidopyridin-1-ium-4-yl)methyl]-2-oxo-indolin-3-yl]benzenesulfonamide]
- inhibition at 15 µM ([1]; Table 3, at 15 uM): 11%
- IC50 [2]: 33.8 nM

Structure (SMILES): NS(=O)(=O)c1ccc(C2(O)C(=O)N(CC3CCOCC3)c3ccccc32)cc1 (stereo not shown) [NEM-12A, 4-[3-hydroxy-2-oxo-1-(tetrahydropyran-4-ylmethyl)indolin-3-yl]benzenesulfonamide]
- inhibition at 15 µM ([1]; Table 3, at 15 uM): 6%
- IC50 [2]: 62.5 nM

Structure (SMILES): COc1ccc(N2C(=O)C(O)(c3ccc(S(N)(=O)=O)cc3)c3ccccc32)cc1 (stereo not shown) [NEM-13A, 4-[3-hydroxy-1-(4-methoxyphenyl)-2-oxo-indolin-3-yl]benzenesulfonamide]
- inhibition at 15 µM [1]: 87%

Structure (SMILES): NS(=O)(=O)c1ccc(C2(O)C(=O)N(Cc3ccc(N4CCOCC4)cc3)c3ccccc32)cc1 (stereo not shown) [NEM-14A, 4-[3-hydroxy-1-[(4-morpholinophenyl)methyl]-2-oxo-indolin-3-yl]benzenesulfonamide]
- inhibition of mast cell numbers (POI) compared to MZ at 126 uM ([1]; 10 uM): comparable inhibition of mast cell numbers with the control, MZ, at 126 uM
- inhibition of mast cell numbers (POI) compared to MZ at 126 uM ([1]; 15 uM): significantly higher inhibition than MZ at 126 uM
- inhibition at 15 µM ([1]; Table 3, at 15 uM): 98%
- IC50 [2]: 34 nM

Structure (SMILES): COc1ccc2c(N3C(=O)C(O)(c4ccc(S(N)(=O)=O)cc4)c4ccccc43)cccc2c1 (stereo not shown) [NEM-15A, 4-[3-hydroxy-1-(6-methoxy-1-naphthyl)-2-oxo-indolin-3-yl]benzenesulfonamide]
- inhibition of mast cell numbers (POI) compared to MZ at 126 uM ([1]; 10 uM): significantly higher inhibition of mast cell numbers than MZ at 126 uM
- inhibition of mast cell numbers (POI) compared to MZ at 126 uM ([1]; 15 uM): significantly higher inhibition of mast cell numbers than MZ at 126 uM
- inhibition at 15 µM ([1]; Table 3, at 15 uM): 100%
- IC50 [2]: 35.3 nM

Structure (SMILES): NS(=O)(=O)c1ccc(C2(O)C(=O)N(Cc3ccc(N4CCCCC4)cc3)c3ccccc32)cc1 (stereo not shown) [NEM-19A, 4-[3-hydroxy-2-oxo-1-[[4-(1-piperidyl)phenyl]methyl]indolin-3-yl]benzenesulfonamide]
- inhibition at 15 µM [1]: 99%

Structure (SMILES): NS(=O)(=O)c1ccc(C2(O)C(=O)N(Cc3ccc(N4CCC(F)(F)CC4)cc3)c3ccccc32)cc1 (stereo not shown) [NEM-20A, 4-[1-[[4-(4,4-difluoro-1-piperidyl)phenyl]methyl]-3-hydroxy-2-oxo-indolin-3-yl]benzenesulfonamide]
- inhibition at 15 µM [1]: 100%

Structure (SMILES): NS(=O)(=O)c1ccc(C2(O)C(=O)N(Cc3ccc(C4CCNCC4)cc3)c3ccccc32)cc1 (stereo not shown) [NEM-21A, 4-[3-hydroxy-2-oxo-1-[[4-(4-piperidyl)phenyl]methyl]indolin-3-yl]benzenesulfonamide]
- inhibition at 15 µM [1]: 81%

Structure (SMILES): NS(=O)(=O)c1ccc(C2(O)C(=O)N(Cc3ccc(N4CCNCC4)cc3)c3ccccc32)cc1 (stereo not shown) [NEM-22A, 4-[3-hydroxy-2-oxo-1-[(4-piperazin-1-ylphenyl)methyl]indolin-3-yl]benzenesulfonamide]
- inhibition at 15 µM [1]: 53%

Structure (SMILES): NS(=O)(=O)c1ccc(C2(O)C(=O)N(Cc3ccc(-n4ccnc4)cc3)c3ccccc32)cc1 (stereo not shown) [NEM-25A, 4-[3-hydroxy-1-[(4-imidazol-1-ylphenyl)methyl]-2-oxo-indolin-3-yl]benzenesulfonamide]
- inhibition at 15 µM [1]: 87%

Structure (SMILES): NS(=O)(=O)c1ccc(C2(O)C(=O)N(Cc3ccc4ncccc4c3)c3ccccc32)cc1 (stereo not shown) [NEM-26A, 4-[3-hydroxy-2-oxo-1-(6-quinolylmethyl)indolin-3-yl]benzenesulfonamide]
- inhibition at 15 µM [1]: 82%

Structure (SMILES): NS(=O)(=O)c1ccc(C2(O)C(=O)N(c3ccc(Br)cc3)c3ccccc32)cc1 (stereo not shown) [NEM-27A, 4-[1-(4-bromophenyl)-3-hydroxy-2-oxo-indolin-3-yl]benzenesulfonamide]
- inhibition at 15 µM [1]: 94%

Structure (SMILES): CC(C)(C)OC(=O)N1CCC(c2ccc(CN3C(=O)C(O)(c4ccc(S(N)(=O)=O)cc4)c4ccccc43)cc2)CC1 (stereo not shown) [NEM-30A, tert-butyl 4-[4-[[3-hydroxy-2-oxo-3-(4-sulfamoylphenyl)indolin-1-yl]methyl]phenyl]piperidine-1-carboxylate]
- inhibition at 15 µM [1]: 100%

Structure (SMILES): CC(C)(C)OC(=O)N1CCN(c2ccc(CN3C(=O)C(O)(c4ccc(S(N)(=O)=O)cc4)c4ccccc43)cc2)CC1 (stereo not shown) [NEM-32A, tert-butyl 4-[4-[[3-hydroxy-2-oxo-3-(4-sulfamoylphenyl)indolin-1-yl]methyl]phenyl]piperazine-1-carboxylate]
- inhibition at 15 µM [1]: 100%

Structure (SMILES): NS(=O)(=O)c1ccc(C2(O)C(=O)N(c3cccc4cc(F)ccc34)c3ccccc32)cc1 (stereo not shown) [NEM-34A, 4-[1-(6-fluoro-1-naphthyl)-3-hydroxy-2-oxo-indolin-3-yl]benzenesulfonamide]
- inhibition at 15 µM [1]: 99%

Structure (SMILES): NS(=O)(=O)c1ccc(C2(O)C(=O)N(c3cccc4cc(Cl)ccc34)c3ccccc32)cc1 (stereo not shown) [NEM-35A, 4-[1-(6-chloro-1-naphthyl)-3-hydroxy-2-oxo-indolin-3-yl]benzenesulfonamide]
- inhibition at 15 µM [1]: 99%

Structure (SMILES): NS(=O)(=O)c1ccc(C2(O)C(=O)N(c3cccc4cc(N5CCOCC5)ccc34)c3ccccc32)cc1 (stereo not shown) [NEM-36A, 4-[3-hydroxy-1-(6-morpholino-1-naphthyl)-2-oxo-indolin-3-yl]benzenesulfonamide]
- inhibition at 15 µM [1]: 91%

Structure (SMILES): NS(=O)(=O)c1ccc(C2(O)C(=O)N(c3cccc4cnccc34)c3ccccc32)cc1 (stereo not shown) [NEM-38A, 4-[3-hydroxy-1-(5-isoquinolyl)-2-oxo-indolin-3-yl]benzenesulfonamide]
- inhibition at 15 µM [1]: 63%

Structure (SMILES): NS(=O)(=O)c1ccc(C2(O)C(=O)N(Cc3ccc4c(c3)OCO4)c3ccccc32)cc1 (stereo not shown) [NEM-41A, 4-[1-(1,3-benzodioxol-5-ylmethyl)-3-hydroxy-2-oxo-indolin-3-yl]benzenesulfonamide]
- inhibition at 15 µM [1]: 64%

Structure (SMILES): NS(=O)(=O)c1ccc(C2(O)C(=O)N(Cc3ccc(-c4ccnc(C(F)(F)F)c4)cc3)c3ccccc32)cc1 (stereo not shown) [NEM-45A, 4-[3-hydroxy-2-oxo-1-[[4-[2-(trifluoromethyl)-4-pyridyl]phenyl]methyl]indolin-3-yl]benzenesulfonamide]
- inhibition at 15 µM [1]: 100%

Structure (SMILES): COc1ccc(CN2C(=O)C(O)(c3ccc(S(N)(=O)=O)cc3)c3ccccc32)cc1 (stereo not shown) [drawing 86]
- Percent Inhibition at 10 μm [1]: 91%
